The text below walks through data of patent US8895571B2, “Isoindolinone and pyrrolopyridinone derivatives as Akt inhibitors” (Incyte Corporation, priority 2011, dated 2014).

For assay [1], the target named is T1, Full length Akt2 (Homo sapiens, UniProt P31751).
T1 construct: Full length Akt1 (cat #P2999), Akt2 (cat #PV3184); purchased PerkinElmer PV3184
As to the kind of experiment: In vitro Akt kinase enzymatic assay (HTRF), Akt2. It counts as biochemical. The settings on record: 0.6 nM Akt2, substrate solution with 5 mM ATP, 25° C. 1 hr. In a few lines: (§1)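 Full-length enzyme (0.4 nM Akt1 or 0.6 nM Akt2/Akt3 in the enzyme solution) was combined with a substrate solution of 0.1 μM ULight-Crosstide plus 5 mM ATP in pH 7.8 HEPES/MgCl2/DTT/Tween20 buffer and reacted 1 hr at 25° C. The EDTA stop contained Eu anti-phospho-Crosstide; IC50 was fitted from 11-point HTRF inhibition curves.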
Background: In TR-FRET formats the signal depends on donor and acceptor labels being close together.

The target in assay [2] is T2, Full length PKA (Homo sapiens, UniProt P17612).
T2 construct: Full length PKA (cat #P2912); purchased Invitrogen P2912
Nature of the assay: PKA in vitro enzymatic assay (HTRF). It counts as biochemical. The settings on record: 0.035 nM enzyme solution, substrate solution with 5 mM ATP, 25° C. 1 hr. An outline of the steps: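 IC50 came from curve fitting of percent inhibition across an 11-point, 3-fold compound series, with HTRF read after EDTA quench and Tb-labelled p-S133 antibody detection. Enzyme (0.035 nM solution) and substrate (0.1 μM fluorescein-CREBtide solution containing 5 mM ATP) reacted for 1 h at 25°C. The buffer was HEPES 50 mM pH 7.8 with 10 mM MgCl2, 5 mM DTT and 0.005% Tween20.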

The target of assay [3] is T3, Full length Akt3 (Homo sapiens, UniProt Q9Y243).
T3 construct: Full length Akt1 (cat #P2999), Akt2 (cat #PV3184), Akt3 (cat #PV3185); purchased PerkinElmer PV3185
As to the kind of experiment: In vitro Akt kinase enzymatic assay (HTRF), Akt3. Format: biochemical. The settings on record: 0.6 nM Akt3, substrate solution with 5 mM ATP, 25° C. 1 hr. An outline of the steps:
as §1

In assay [4] the target is T4, Full length Akt1 (Homo sapiens, UniProt P31749).
T4 construct: Full length Akt1 (cat #P2999); purchased PerkinElmer P2999
Nature of the assay: In vitro Akt kinase enzymatic assay (HTRF), Akt1. Format: biochemical. The settings on record: 0.4 nM Akt1, substrate solution with 5 mM ATP, 25° C. 1 hr. An outline of the steps: as §1

Assay [5] relates to LNCaP cells (human prostate tumor cell line). As to the kind of experiment: Akt LNCaP proliferation assay (MTS). The settings on record: 48 hours. Format: cell-based. On the procedure:
LNCaP cells (human prostate tumor cell line) were plated in 96 well plates (COSTAR, Corning, N.Y.) in 50 μL at 10,000 cells/well in RPMI (Media Tech, Manassas, Va.), 2% fetal bovine serum (Hyclone/Thermo, Logan, Utah) and incubated overnight at 37° C., 5% CO2. […] of compound solution were added at final concentrations of 1000 nM to 0.5 nM in 3 fold dilutions for IC50 determination and plates further incubated for 48 hours. 100 μL of Cell Titer 96® Aqueous reagent, from an MTS colorimetric method for determining the number of viable cells in proliferation (Cell titer 96, Promega, Madison, Wis.) was added for 2 hours at 37° C., 5% CO2. Each plate was mixed well and read on a SpectroMax M5 automated plate reader (Molecular Devices, Sunnyvale Calif.). The ability of the compound to inhibit proliferation was reported as the inhibitor concentration required for 50% inhibition (IC50 values) of total cell proliferation. See Table 8 for data related to compounds of the examples.

[6] abbreviates: 2% fetal bovine serum, class symbols.
[7] abbreviates: given as a bound, final concentrations 1000 nM to 0.5 nM.

T3 sequence (Q9Y243 whole entry): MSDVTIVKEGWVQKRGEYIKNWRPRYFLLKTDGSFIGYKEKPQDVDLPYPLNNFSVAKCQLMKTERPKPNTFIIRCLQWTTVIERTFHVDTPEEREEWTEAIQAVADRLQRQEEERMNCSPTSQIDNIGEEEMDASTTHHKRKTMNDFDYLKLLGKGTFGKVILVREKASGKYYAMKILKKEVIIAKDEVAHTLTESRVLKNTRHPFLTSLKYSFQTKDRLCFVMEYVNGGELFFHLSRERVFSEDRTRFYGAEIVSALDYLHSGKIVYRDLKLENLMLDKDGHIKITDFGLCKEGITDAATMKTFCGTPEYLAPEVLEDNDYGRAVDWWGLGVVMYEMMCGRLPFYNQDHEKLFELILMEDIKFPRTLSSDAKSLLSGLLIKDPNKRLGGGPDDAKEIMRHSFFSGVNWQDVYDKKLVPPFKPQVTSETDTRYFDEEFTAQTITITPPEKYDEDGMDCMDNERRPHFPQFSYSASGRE
T1 sequence (P31751 whole entry): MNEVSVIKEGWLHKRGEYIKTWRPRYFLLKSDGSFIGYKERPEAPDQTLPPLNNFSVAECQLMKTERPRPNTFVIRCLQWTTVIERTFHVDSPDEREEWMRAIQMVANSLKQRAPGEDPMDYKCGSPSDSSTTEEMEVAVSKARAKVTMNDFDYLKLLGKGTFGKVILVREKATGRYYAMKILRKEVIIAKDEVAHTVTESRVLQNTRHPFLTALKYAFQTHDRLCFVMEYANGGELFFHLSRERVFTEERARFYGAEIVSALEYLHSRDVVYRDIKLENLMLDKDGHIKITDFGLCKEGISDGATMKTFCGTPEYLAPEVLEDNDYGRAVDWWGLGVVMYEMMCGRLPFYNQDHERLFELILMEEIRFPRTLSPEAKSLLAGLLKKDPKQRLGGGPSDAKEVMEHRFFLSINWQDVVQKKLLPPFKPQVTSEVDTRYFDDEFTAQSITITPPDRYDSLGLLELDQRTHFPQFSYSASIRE
T4 sequence (P31749 whole entry): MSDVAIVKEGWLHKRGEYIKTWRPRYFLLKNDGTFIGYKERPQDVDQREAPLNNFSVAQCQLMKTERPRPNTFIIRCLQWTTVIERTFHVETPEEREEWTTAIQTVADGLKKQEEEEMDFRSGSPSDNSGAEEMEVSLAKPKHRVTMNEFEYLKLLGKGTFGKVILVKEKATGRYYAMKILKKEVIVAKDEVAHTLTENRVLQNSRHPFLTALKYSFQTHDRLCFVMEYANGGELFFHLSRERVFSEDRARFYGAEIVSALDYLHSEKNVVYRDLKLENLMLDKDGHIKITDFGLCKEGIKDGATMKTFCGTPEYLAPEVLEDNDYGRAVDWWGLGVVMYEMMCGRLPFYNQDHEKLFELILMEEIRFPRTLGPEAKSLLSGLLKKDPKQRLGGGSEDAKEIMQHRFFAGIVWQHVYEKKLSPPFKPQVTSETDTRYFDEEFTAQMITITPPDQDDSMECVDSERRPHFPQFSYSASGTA

For the molecule `Cn1nccc1-c1ccc2c(c1)CN([C@H](CN)Cc1csc3ccccc13)C2=O` [Example 76, 2-[(1S)-2-amino-1-(1-benzothien-3-ylmethyl)ethyl]-5-(1-methyl-1H-pyrazol-5-yl)isoindolin-1-one], the IC50 is less than 500 nM in assay [1]; greater than 5000 nM in assay [2]; less than 500 nM in assay [3]; less than 500 nM in assay [4]; less than 500 nM in assay [5] (setting [6]).
On to `CC(C)Cn1nccc1-c1ccc2c(c1)CN([C@H](CN)Cc1cc(F)cc(F)c1)C2=O` [Example 130, 2-[(1S)-2-amino-1-(3,5-difluorobenzyl)ethyl]-5-(1-isobutyl-1H-pyrazol-5-yl)isoindolin-1-one], for which the IC50 in assay [1] is greater than 5000 nM; in assay [2], greater than 5000 nM; in assay [3], greater than 5000 nM; in assay [4], 500 to 5000 nM; in assay [5] (setting [7]), greater than 1000 nM.
As for `Cn1ncc(Cl)c1-c1ccc2c(c1)CN([C@H](CN)CC1CCCCC1)C2=O` [Example 132, 2-[(1S)-2-amino-1-(cyclohexylmethyl)ethyl]-5-(4-chloro-1-methyl-1H-pyrazol-5-yl)isoindolin-1-one], the IC50 is less than 500 nM in assay [1]; 500 to 5000 nM in assay [2]; less than 500 nM in assay [3]; less than 500 nM in assay [4]; less than 500 nM in assay [5] (setting [6]).
Consider `CC(C)OCc1cnn(C)c1-c1ccc2c(c1)CN([C@H](CN)Cc1cc(F)cc(F)c1)C2=O` [Example 45, 2-[(1S)-2-amino-1-(3,5-difluorobenzyl)ethyl]-5-[4-(2-propoxymethyl)-1-methyl-1H-pyrazol-5-yl]isoindolin-1-one], for which the IC50 in assay [1] is less than 500 nM; in assay [2] it was 500 to 5000 nM; in assay [3], less than 500 nM; in assay [4] it was less than 500 nM; in assay [5] (setting [6]), less than 500 nM.
In the case of `CC(C)OCc1cnn(C)c1-c1ccc2c(c1)CN([C@H](CN)Cc1cccc(F)c1)C2=O` [Example 6, 2-[(1S)-2-amino-1-(3-fluorobenzyl)ethyl]-5-[4-(2-propoxymethyl)-1-methyl-1H-pyrazol-5-yl]isoindolin-1-one], the IC50 in assay [1] was less than 500 nM; in assay [2] it was greater than 5000 nM; in assay [3] it was less than 500 nM; in assay [4], less than 500 nM; in assay [5] (setting [6]) it was less than 500 nM.
Turning to `Cn1ncc(Cl)c1-c1cc2c(cn1)C(=O)N([C@H](CN)Cc1ccccc1)C2` [Example 100, 2-((1S)-2-amino-1-benzylethyl)-6-(4-chloro-1-methyl-1H-pyrazol-5-yl)-1,2-dihydro-3H-pyrrolo[3,4-c]pyridin-3-one], the IC50 is less than 500 nM in assay [1]; 500 to 5000 nM in assay [2]; less than 500 nM in assay [3]; less than 500 nM in assay [4]; less than 500 nM in assay [5] (setting [6]).
As for `Cc1cnn(C)c1-c1cc2c(cn1)C(=O)N([C@H](CN)Cc1cccc(F)c1)C2` [Example 94, 2-[(1S)-2-amino-1-(3-fluorobenzyl)ethyl]-6-(4-methyl-1-methyl-1H-pyrazol-5-yl)-1,2-dihydro-3H-pyrrolo[3,4-c]pyridin-3-one], the IC50 in assay [1] is less than 500 nM; in assay [2] it was 500 to 5000 nM; in assay [3], less than 500 nM; in assay [4] it was less than 500 nM; in assay [5] (setting [6]), less than 500 nM.
Consider `COCc1cnn(C)c1-c1ccc2c(c1)CN([C@H](CN)Cc1cc(F)cc(F)c1)C2=O` [Example 43, 2-[(1S)-2-amino-1-(3,5-difluorobenzyl)ethyl]-5-(4-methoxymethyl-1-methyl-1H-pyrazol-5-yl)isoindolin-1-one], for which the IC50 in assay [1] was less than 500 nM; in assay [2], greater than 5000 nM; in assay [3] it was less than 500 nM; in assay [4], less than 500 nM; in assay [5] (setting [6]) it was less than 500 nM.
Regarding `Cn1ncc(C#N)c1-c1ccc2c(c1)CN([C@H](CN)Cc1cccc(F)c1)C2=O` [Example 13, 2-[(1S)-2-amino-1-(3-fluorobenzyl)ethyl]-5-(4-cyano-1-methyl-1H-pyrazol-5-yl)isoindolin-1-one], the IC50 was less than 500 nM in assay [1]; greater than 5000 nM in assay [2]; less than 500 nM in assay [3]; less than 500 nM in assay [4]; less than 500 nM in assay [5] (setting [6]).
Regarding `CC(C)OCc1cnn(C)c1-c1cc2c(cn1)C(=O)N([C@H](CN)Cc1cc(F)cc(F)c1)C2` [Example 106, 2-[(1S)-2-amino-1-(3,5-difluoro-benzyl)ethyl]-6-[4-(2-propoxy-methyl)-1-methyl-1H-pyrazol-5-yl]-1,2-dihydro-3H-pyrrolo[3,4-c]pyridin-3-one], the IC50 was less than 500 nM in assay [1]; greater than 5000 nM in assay [2]; less than 500 nM in assay [3]; less than 500 nM in assay [4]; less than 500 nM in assay [5] (setting [6]).
Take `Cn1nccc1-c1ccc2c(c1)CN([C@H](CN)Cc1ccccn1)C2=O` [Example 79, 2-[(1S)-2-amino-1-(pyridin-2-ylmethyl)ethyl]-5-(1-methyl-1H-pyrazol-5-yl)isoindolin-1-one]: the IC50 in assay [1] is less than 500 nM; in assay [2], greater than 5000 nM; in assay [3] it was 500 to 5000 nM; in assay [4] it was less than 500 nM; in assay [5] (setting [6]) it was 500 to 5000 nM.
Consider `Cn1nccc1-c1ccc2c(c1)CN([C@H](CN)Cc1cccc(-c3ccncc3)c1)C2=O` [Example 85, 2-[(1S)-2-amino-1-(3-pyridin-4-ylbenzyl)ethyl]-5-(1-methyl-1H-pyrazol-5-yl)isoindolin-1-one], for which the IC50 in assay [1] was greater than 5000 nM; in assay [2] it was greater than 5000 nM; in assay [3], greater than 5000 nM; in assay [4] it was greater than 5000 nM; in assay [5] (setting [7]), greater than 1000 nM.
Take `Cn1ncc(C#N)c1-c1ccc2c(c1)CN([C@H](CN)Cc1cc(F)cc(F)c1)C2=O` [Example 53, 2-[(1S)-2-amino-1-(3,5-difluorobenzyl)ethyl]-5-(4-cyano-1-methyl-1H-pyrazol-5-yl)isoindolin-1-one]: the IC50 in assay [1] was less than 500 nM; in assay [2], 500 to 5000 nM; in assay [3], less than 500 nM; in assay [4] it was less than 500 nM; in assay [5] (setting [6]) it was less than 500 nM.
For `CCOCc1cnn(C)c1-c1ccc2c(c1)CN([C@H](CN)Cc1cc(F)cc(F)c1)C2=O` [Example 44, 2-[(1S)-2-amino-1-(3,5-difluorobenzyl)ethyl]-5-(4-ethoxymethyl-1-methyl-1H-pyrazol-5-yl)isoindolin-1-one], the IC50 in assay [1] is less than 500 nM; in assay [2] it was 500 to 5000 nM; in assay [3], less than 500 nM; in assay [4], less than 500 nM; in assay [5] (setting [6]), less than 500 nM.
As for `Cn1ncc(COC2CCC2)c1-c1cc2c(cn1)C(=O)N([C@H](CN)Cc1cc(F)cc(F)c1)C2` [Example 108, 2-[(1S)-2-amino-1-(3,5-difluoro-benzyl)ethyl]-6-[4-(cyclobutoxy-methyl)-1-methyl-1H-pyrazol-5-yl]-1,2-dihydro-3H-pyrrolo[3,4-c]pyridin-3-one], the IC50 in assay [1] is less than 500 nM; in assay [2] it was 500 to 5000 nM; in assay [3], less than 500 nM; in assay [4], less than 500 nM; in assay [5] (setting [6]) it was less than 500 nM.
As to `CSCc1cnn(C)c1-c1ccc2c(c1)CN([C@H](CN)Cc1cccc(F)c1)C2=O` [Example 10], the IC50 in assay [1] was 500 to 5000 nM; in assay [2] it was greater than 5000 nM; in assay [3], 500 to 5000 nM; in assay [4], less than 500 nM; in assay [5] (setting [6]), 500 to 5000 nM.
As for `Cn1nccc1-c1cc2c(cn1)C(=O)N([C@H](CN)Cc1cc(F)cc(F)c1)C2` [Example 102, 2-[(1S)-2-amino-1-(3,5-difluoro-benzyl)ethyl]-6-(1-methyl-1H-pyrazol-5-yl)-1,2-dihydro-3H-pyrrolo[3,4-c]pyridin-3-one], the IC50 in assay [1] is less than 500 nM; in assay [2], 500 to 5000 nM; in assay [3] it was less than 500 nM; in assay [4] it was less than 500 nM; in assay [5] (setting [6]), less than 500 nM.
`Cn1ncc(COC2CCC2)c1-c1ccc2c(c1)CN([C@H](CN)Cc1cccc(F)c1)C2=O` [Example 8, 2-[(1S)-2-amino-1-(3-fluorobenzyl)ethyl]-5-(4-cyclobutoxymethyl-1-methyl-1H-pyrazol-5-yl)isoindolin-1-one]: the IC50 in assay [1] is less than 500 nM; in assay [2] it was 500 to 5000 nM; in assay [3], less than 500 nM; in assay [4], less than 500 nM; in assay [5] (setting [6]), less than 500 nM.

By IC50 is commonly meant the concentration that inhibits the measured activity by half. A higher IC50 goes with weaker potency.
